# What was measured:
# Assay type in all cases: biochemical
# PI3Kα = molecular target: T1, PI3Kα (Homo sapiens, UniProt P42336); assay: In vitro determination of the PI3K enzyme inhibitory activity in the cell free assay (ADP-Glo Kinase Assay), PI3Kα; details: ATP 50 μM, read-out: PI3K alpha inhibition
# T1 construct: purchased Millipore Ltd (Billerica, Mass.)
# Description: (§1) In vitro Determination of the PI3K Enzyme Inhibitory Activity in the Cell Free Assay
# (§2) Human recombinant proteins PI3Kα, PI3Kβ, PI3Kγ and PI3Kδ were purchased from Millipore Ltd (Billerica, Mass.). Compounds were dissolved at 0.5 mM in DMSO and were tested at different concentrations for their activity against PI3Ks using the ADP-Glo™ Kinase Assay (Promega, Madison Wis.) according to the manufacturer's instructions.
# (§3) Briefly, the kinase reactions were performed in 384-well white plates (Greiner Bio-One GmbH, Frickenhausen). Each well was loaded with 0.1 μl of test compounds and 2.5 μl of 2× reaction buffer (40 mM Tris pH7.5, 0.5 mM EGTA, 0.5 mM Na3VO4, 5 mM β-glycerophosphate, 0.1 mg/ml BSA, 1 mM DTT), containing 50 μM PI and PS substrates (L-α-phosphatidylinositol sodium salt and L-α-phosphatidyl-L-serine, Sigma-Aldrich, St. Louis Mo.) and the PI3K recombinant proteins (PI3Kγ 0.25 ng/μl, PI3Kδ 1 ng/μl, PI3Kα 0.125 ng/μl, PI3Kβ 1 ng/μl).
# (§4) The reactions were started by adding 2.5 μl of 2×ATP solution to each well (final concentrations: PI3Kγ ATP 30 μM; PI3Kδ ATP 80 μM; PI3KαATP 50 μM; PI3Kβ ATP 100 μM) and incubated for 60 min at room temperature. Subsequently, each kinase reaction was incubated for 40 min with 5 μl ADP-Glo™ Reagent, allowing depletion of unconsumed ATP. Then, the Kinase Detection Reagent (10 μl) was added in each well to convert ADP to ATP and to allow the newly synthesized ATP to be measured using a luciferase/luciferin reaction. Following 60 min incubation, the luminescence signal was measured using a Wallac EnVision® multilabel reader (PerkinElmer, Waltham Mass.).
# (§5) Curve fitting and IC50 calculation were carried out using a four-parameter logistic model in XLfit (IDBS, Guilford, UK) for Microsoft Excel (Microsoft, Redmont, Wash.).
# PI3Kβ = molecular target: T2, PI3Kβ (Homo sapiens, UniProt P42338); assay: In vitro determination of the PI3K enzyme inhibitory activity in the cell free assay (ADP-Glo Kinase Assay), PI3Kβ; details: ATP 100 μM, read-out: PI3K beta inhibition
# T2 construct: purchased Millipore Ltd (Billerica, Mass.)
# Description: as §1, §2, §3, §4, §5
# PI3Kγ = molecular target: T3, PI3Kγ (Homo sapiens, UniProt P48736); assay: In vitro determination of the PI3K enzyme inhibitory activity in the cell free assay (ADP-Glo Kinase Assay), PI3Kγ; details: ATP 30 μM, read-out: PI3K gamma inhibition
# T3 construct: purchased Millipore Ltd (Billerica, Mass.)
# Description: as §1, §2, §3, §4, §5
# PI3Kδ = molecular target: T4, PI3Kδ (Homo sapiens, UniProt O00329); assay: In vitro determination of the PI3K enzyme inhibitory activity in the cell free assay (ADP-Glo Kinase Assay), PI3Kδ; details: ATP 80 μM, read-out: PI3K delta inhibition
# T4 construct: purchased Millipore Ltd (Billerica, Mass.)
# Description: as §1, §2, §3, §4, §5
# T1 sequence (P42336 whole entry): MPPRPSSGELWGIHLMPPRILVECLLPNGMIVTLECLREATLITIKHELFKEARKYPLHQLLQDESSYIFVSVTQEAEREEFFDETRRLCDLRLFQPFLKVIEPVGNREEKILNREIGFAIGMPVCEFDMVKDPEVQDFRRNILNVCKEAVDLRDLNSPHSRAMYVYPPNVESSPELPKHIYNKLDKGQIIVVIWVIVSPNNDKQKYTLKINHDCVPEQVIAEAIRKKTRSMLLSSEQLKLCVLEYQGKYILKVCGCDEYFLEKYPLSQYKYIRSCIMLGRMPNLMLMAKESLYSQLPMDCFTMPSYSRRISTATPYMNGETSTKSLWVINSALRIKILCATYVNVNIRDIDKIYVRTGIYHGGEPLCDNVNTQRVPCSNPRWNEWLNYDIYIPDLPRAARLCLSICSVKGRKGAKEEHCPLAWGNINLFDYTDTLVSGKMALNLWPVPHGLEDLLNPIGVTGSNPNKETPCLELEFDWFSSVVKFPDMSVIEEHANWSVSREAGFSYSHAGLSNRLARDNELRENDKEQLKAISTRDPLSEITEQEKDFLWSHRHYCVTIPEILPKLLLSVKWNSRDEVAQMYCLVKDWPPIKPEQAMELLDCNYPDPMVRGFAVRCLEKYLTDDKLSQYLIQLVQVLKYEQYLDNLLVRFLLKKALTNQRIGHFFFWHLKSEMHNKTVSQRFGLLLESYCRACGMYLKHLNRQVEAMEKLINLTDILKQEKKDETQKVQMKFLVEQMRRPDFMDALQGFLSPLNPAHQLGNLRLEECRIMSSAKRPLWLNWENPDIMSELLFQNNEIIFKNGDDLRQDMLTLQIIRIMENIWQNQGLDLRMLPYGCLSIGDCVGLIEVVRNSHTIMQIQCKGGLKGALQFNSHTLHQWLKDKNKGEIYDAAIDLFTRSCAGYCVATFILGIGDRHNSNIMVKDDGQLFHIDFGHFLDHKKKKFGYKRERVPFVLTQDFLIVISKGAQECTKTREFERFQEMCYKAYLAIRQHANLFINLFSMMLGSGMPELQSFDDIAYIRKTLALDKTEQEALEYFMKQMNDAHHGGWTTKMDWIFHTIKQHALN
# T1 sequence (P27986 whole entry partner): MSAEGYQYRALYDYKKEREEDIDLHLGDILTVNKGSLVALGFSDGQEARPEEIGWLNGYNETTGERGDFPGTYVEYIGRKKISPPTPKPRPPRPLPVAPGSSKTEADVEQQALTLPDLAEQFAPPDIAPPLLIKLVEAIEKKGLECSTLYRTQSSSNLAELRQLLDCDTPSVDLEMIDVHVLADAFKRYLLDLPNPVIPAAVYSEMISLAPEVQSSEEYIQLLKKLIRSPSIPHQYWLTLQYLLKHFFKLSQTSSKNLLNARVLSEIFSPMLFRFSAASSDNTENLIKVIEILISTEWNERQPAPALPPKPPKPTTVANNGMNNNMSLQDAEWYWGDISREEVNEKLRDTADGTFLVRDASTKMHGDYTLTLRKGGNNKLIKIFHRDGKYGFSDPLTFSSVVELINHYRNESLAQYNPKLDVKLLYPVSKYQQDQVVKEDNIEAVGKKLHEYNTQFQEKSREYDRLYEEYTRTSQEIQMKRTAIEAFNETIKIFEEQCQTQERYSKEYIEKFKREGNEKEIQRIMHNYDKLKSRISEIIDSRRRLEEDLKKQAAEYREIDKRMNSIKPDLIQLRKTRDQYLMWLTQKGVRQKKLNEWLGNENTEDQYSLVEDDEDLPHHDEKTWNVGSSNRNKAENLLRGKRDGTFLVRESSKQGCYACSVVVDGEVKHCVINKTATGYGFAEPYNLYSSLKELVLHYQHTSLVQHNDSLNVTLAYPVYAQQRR
# T2 sequence (P42338 whole entry): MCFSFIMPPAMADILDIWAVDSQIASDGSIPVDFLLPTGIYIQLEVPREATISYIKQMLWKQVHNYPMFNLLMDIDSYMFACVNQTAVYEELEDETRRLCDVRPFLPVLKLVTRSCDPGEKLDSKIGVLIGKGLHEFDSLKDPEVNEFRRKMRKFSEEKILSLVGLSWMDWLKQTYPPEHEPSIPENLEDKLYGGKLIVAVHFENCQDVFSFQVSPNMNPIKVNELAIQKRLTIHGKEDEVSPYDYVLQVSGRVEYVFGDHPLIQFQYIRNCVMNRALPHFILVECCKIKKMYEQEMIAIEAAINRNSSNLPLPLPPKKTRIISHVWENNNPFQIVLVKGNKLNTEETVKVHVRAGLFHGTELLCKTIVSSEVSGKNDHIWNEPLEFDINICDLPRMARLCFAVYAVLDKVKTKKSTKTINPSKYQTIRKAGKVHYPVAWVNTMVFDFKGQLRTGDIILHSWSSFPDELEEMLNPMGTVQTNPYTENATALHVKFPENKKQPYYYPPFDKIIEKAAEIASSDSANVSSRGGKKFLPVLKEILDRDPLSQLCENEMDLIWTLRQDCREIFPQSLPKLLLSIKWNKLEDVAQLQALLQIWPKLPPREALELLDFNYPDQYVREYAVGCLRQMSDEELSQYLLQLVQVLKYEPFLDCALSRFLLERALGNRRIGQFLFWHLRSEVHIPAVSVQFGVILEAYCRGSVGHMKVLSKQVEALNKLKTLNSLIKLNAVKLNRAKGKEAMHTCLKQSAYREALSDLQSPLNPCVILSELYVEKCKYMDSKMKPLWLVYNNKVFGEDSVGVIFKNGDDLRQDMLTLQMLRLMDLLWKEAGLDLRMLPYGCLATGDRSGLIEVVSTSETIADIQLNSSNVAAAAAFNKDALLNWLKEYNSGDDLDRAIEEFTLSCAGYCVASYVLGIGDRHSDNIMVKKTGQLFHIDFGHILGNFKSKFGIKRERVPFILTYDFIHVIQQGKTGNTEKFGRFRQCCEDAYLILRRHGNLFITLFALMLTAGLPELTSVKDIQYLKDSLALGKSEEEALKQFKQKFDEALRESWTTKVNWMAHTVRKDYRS
# T2 sequence (P27986 whole entry partner): as the sequence (P27986 whole entry partner) above
# T3 sequence (P48736 whole entry): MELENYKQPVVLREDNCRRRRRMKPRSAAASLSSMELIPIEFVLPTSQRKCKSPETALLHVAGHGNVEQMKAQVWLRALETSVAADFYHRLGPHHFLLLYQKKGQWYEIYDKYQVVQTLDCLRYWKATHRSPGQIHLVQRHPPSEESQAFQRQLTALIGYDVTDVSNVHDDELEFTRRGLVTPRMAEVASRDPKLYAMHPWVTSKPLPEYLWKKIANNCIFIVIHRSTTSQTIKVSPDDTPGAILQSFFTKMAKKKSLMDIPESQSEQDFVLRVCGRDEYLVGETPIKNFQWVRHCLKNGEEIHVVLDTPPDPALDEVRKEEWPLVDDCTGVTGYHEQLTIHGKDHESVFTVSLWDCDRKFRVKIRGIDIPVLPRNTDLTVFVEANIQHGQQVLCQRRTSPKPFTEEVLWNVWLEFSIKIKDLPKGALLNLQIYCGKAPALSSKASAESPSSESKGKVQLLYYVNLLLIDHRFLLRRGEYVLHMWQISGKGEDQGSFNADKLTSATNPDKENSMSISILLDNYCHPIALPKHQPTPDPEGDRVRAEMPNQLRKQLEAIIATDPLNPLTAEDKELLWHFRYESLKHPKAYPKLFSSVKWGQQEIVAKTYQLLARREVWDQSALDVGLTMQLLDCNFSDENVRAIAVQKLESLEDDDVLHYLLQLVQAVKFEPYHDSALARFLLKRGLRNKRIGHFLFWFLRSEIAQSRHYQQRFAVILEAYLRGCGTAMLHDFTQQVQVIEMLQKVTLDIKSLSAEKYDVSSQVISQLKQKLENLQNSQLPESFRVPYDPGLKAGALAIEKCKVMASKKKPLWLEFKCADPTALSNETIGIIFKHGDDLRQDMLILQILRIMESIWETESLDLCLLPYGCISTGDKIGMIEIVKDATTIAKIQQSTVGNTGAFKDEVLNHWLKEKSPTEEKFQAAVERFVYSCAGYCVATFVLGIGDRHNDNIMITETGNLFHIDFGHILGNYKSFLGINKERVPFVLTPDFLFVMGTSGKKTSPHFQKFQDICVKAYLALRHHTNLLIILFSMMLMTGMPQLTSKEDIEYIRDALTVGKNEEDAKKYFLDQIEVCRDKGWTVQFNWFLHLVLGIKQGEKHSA
# T4 sequence (O00329 whole entry): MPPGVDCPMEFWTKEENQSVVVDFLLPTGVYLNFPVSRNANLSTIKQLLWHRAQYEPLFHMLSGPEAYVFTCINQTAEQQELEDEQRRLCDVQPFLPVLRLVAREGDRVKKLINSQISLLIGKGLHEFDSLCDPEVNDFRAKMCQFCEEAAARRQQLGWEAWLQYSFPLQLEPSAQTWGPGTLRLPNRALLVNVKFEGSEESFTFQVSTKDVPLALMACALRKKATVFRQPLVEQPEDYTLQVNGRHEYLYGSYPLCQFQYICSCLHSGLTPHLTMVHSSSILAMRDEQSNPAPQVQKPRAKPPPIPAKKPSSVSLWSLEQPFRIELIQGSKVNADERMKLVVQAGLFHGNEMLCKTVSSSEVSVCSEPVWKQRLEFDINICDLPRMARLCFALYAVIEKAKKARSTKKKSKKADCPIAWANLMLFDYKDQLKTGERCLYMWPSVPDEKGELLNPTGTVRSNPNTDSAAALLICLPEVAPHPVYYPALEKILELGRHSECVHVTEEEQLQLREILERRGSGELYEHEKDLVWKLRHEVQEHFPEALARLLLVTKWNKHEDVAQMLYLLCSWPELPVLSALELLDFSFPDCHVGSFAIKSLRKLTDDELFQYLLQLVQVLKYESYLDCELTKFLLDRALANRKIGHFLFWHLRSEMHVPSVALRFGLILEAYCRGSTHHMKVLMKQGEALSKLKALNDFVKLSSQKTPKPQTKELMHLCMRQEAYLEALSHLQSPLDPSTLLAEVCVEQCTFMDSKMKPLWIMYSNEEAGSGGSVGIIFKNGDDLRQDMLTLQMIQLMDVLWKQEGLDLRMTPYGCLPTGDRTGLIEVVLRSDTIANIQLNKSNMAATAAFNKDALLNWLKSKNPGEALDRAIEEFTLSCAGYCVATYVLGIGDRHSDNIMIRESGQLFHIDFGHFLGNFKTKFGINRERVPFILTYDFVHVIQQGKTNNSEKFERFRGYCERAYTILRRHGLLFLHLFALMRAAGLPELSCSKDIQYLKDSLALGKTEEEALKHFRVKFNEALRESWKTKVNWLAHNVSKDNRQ
# T4 sequence (P27986 whole entry partner): as the sequence (P27986 whole entry partner) above
IC50 (PI3Kα) [nM],IC50 (PI3Kβ) [nM],IC50 (PI3Kγ) [nM],IC50 (PI3Kδ) [nM],SMILES
> 1000,10 to 1000,> 1000,10 to 1000,"CC(c1cc2ccccn2c1-c1cccc(C2CCCN2C)c1)n1nc(-c2cc(O)cc(F)c2)c2c(N)ncnc21 (mixture of isomers) [Example 118, 3-[4-amino-1-(1-{3-[3-(1-methylpyrrolidin-2-yl)phenyl]indolizin-2-yl}ethyl)-1H-pyrazolo[3,4-d]pyrimidin-3-yl]-5-fluorophenol]"
10 to 1000,10 to 1000,10 to 1000,< 10,"CC(c1cc2ccccn2c1-c1ccccn1)n1nc(-c2cc(O)cc(F)c2)c2c(N)ncnc21 (racemic) [Example 79, 3-(4-amino-1-{1-[3-(pyridin-2-yl)indolizin-2-yl]ethyl}-1H-pyrazolo[3,4-d]pyrimidin-3-yl)-5-fluorophenol]"
> 1000,10 to 1000,10 to 1000,< 10,"CC(c1cc2ccccn2c1-c1ccncc1)n1nc(-c2cc(O)cc(F)c2)c2c(N)ncnc21 (racemic) [Example 82, 3-(4-amino-1-{1-[3-(pyridin-4-yl)indolizin-2-yl]ethyl}-1H-pyrazolo[3,4-d]pyrimidin-3-yl)-5-fluorophenol]"
10 to 1000,10 to 1000,10 to 1000,10 to 1000,"CC(c1cc2ccccn2c1-c1cccc(CN(C)C)c1)n1nc(-c2cc(O)cc(F)c2)c2c(N)ncnc21 (racemic) [Example 93, 3-{4-amino-1-[1-(3-{3-[(dimethylamino)methyl]phenyl}indolizin-2-yl)ethyl]-1H-pyrazolo[3,4-d]pyrimidin-3-yl}-5-fluorophenol]"
10 to 1000,10 to 1000,10 to 1000,< 10,"C[C@@H](c1cc2ccccn2c1-c1ccccn1)n1nc(-c2cc(O)cc(F)c2)c2c(N)ncnc21 (single isomer, unassigned) [Example 80, 3-(4-amino-1-{1-[3-(pyridin-2-yl)indolizin-2-yl]ethyl}-1H-pyrazolo[3,4-d]pyrimidin-3-yl)-5-fluorophenol]"
> 1000,> 1000,> 1000,10 to 1000,"C[C@@H](c1cc2ccccn2c1-c1ccccn1)n1nc(-c2cc(O)cc(F)c2)c2c(N)ncnc21 (single isomer, unassigned) [Example 81, 3-(4-amino-1-{1-[3-(pyridin-2-yl)indolizin-2-yl]ethyl}-1H-pyrazolo[3,4-d]pyrimidin-3-yl)-5-fluorophenol]"
10 to 1000,10 to 1000,10 to 1000,< 10,"C[C@@H](c1cc2ccccn2c1-c1ccncc1)n1nc(-c2cc(O)cc(F)c2)c2c(N)ncnc21 (single isomer, unassigned) [Example 83, 3-(4-amino-1-{1-[3-(pyridin-4-yl)indolizin-2-yl]ethyl}-1H-pyrazolo[3,4-d]pyrimidin-3-yl)-5-fluorophenol]"
> 1000,> 1000,> 1000,10 to 1000,"C[C@@H](c1cc2ccccn2c1-c1ccncc1)n1nc(-c2cc(O)cc(F)c2)c2c(N)ncnc21 (single isomer, unassigned) [Example 84, 3-(4-amino-1-{1-[3-(pyridin-4-yl)indolizin-2-yl]ethyl}-1H-pyrazolo[3,4-d]pyrimidin-3-yl)-5-fluorophenol]"
10 to 1000,10 to 1000,> 1000,< 10,"C[C@H](c1cc2ccccn2c1-c1cccc(CN(C)C)c1)n1nc(-c2cc(O)cc(F)c2)c2c(N)ncnc21 (single isomer, unassigned) [Example 93a, 3-{4-amino-1-[1-(3-{3-[(dimethylamino)methyl]phenyl}indolizin-2-yl)ethyl]-1H-pyrazolo[3,4-d]pyrimidin-3-yl}-5-fluorophenol]"
> 1000,10 to 1000,> 1000,10 to 1000,"C[C@H](c1cc2ccccn2c1-c1cccc(CN(C)C)c1)n1nc(-c2cc(O)cc(F)c2)c2c(N)ncnc21 (single isomer, unassigned) [Example 93b, 3-{4-amino-1-[1-(3-{3-[(dimethylamino)methyl]phenyl}indolizin-2-yl)ethyl]-1H-pyrazolo[3,4-d]pyrimidin-3-yl}-5-fluorophenol]"
> 1000,10 to 1000,> 1000,< 10,"C[C@H](c1cc2ccccn2c1-c1ccc(CN2CCOCC2)cn1)n1nc(-c2cc(O)cc(F)c2)c2c(N)ncnc21 (single isomer, unassigned) [Example 108a, 3-[4-amino-1-(1-{3-[5-(morpholin-4-ylmethyl)pyridin-2-yl]indolizin-2-yl}ethyl)-1H-pyrazolo[3,4-d]pyrimidin-3-yl]-5-fluorophenol]"
> 1000,10 to 1000,> 1000,< 10,"C[C@H](c1cc2ccccn2c1-c1ccc(CN2CCOCC2)cn1)n1nc(-c2cc(O)cc(F)c2)c2c(N)ncnc21 (single isomer, unassigned) [Example 108b, 3-[4-amino-1-(1-{3-[5-(morpholin-4-ylmethyl)pyridin-2-yl]indolizin-2-yl}ethyl)-1H-pyrazolo[3,4-d]pyrimidin-3-yl]-5-fluorophenol]"
10 to 1000,10 to 1000,10 to 1000,< 10,"C[C@H](c1cc2ccccn2c1-c1ccc(CN2CCN(C)CC2)cn1)n1nc(-c2cc(O)cc(F)c2)c2c(N)ncnc21 (single isomer, unassigned) [Example 114a, 3-{4-amino-1-[1-(3-{5-[(4-methylpiperazin-1-yl)methyl]pyridin-2-yl}indolizin-2-yl)ethyl]-1H-pyrazolo[3,4-d]pyrimidin-3-yl}-5-fluorophenol]"
10 to 1000,10 to 1000,10 to 1000,< 10,"C[C@H](c1cc2ccccn2c1-c1ccc(CN2CCN(C)CC2)cn1)n1nc(-c2cc(O)cc(F)c2)c2c(N)ncnc21 (single isomer, unassigned) [Example 114b, 3-{4-amino-1-[1-(3-{5-[(4-methylpiperazin-1-yl)methyl]pyridin-2-yl}indolizin-2-yl)ethyl]-1H-pyrazolo[3,4-d]pyrimidin-3-yl}-5-fluorophenol]"
10 to 1000,10 to 1000,> 1000,< 10,"C[C@H](c1cc2ccccn2c1-c1ccc(CN(CCO)CCO)cn1)n1nc(-c2cc(O)cc(F)c2)c2c(N)ncnc21 (single isomer, unassigned) [Example 117a, 3-(4-amino-1-{1-[3-(5-{[bis(2-hydroxyethyl)amino]methyl}pyridin-2-yl)indolizin-2-yl]ethyl}-1H-pyrazolo[3,4-d]pyrimidin-3-yl)-5-fluorophenol]"
10 to 1000,10 to 1000,> 1000,< 10,"C[C@H](c1cc2ccccn2c1-c1ccc(CN(CCO)CCO)cn1)n1nc(-c2cc(O)cc(F)c2)c2c(N)ncnc21 (single isomer, unassigned) [Example 117b, 3-(4-amino-1-{1-[3-(5-{[bis(2-hydroxyethyl)amino]methyl}pyridin-2-yl)indolizin-2-yl]ethyl}-1H-pyrazolo[3,4-d]pyrimidin-3-yl)-5-fluorophenol]"
> 1000,> 1000,> 1000,10 to 1000,"C[C@H](c1cc2ccccn2c1-c1ccn(CCN2CCOCC2)c(=O)c1)n1nc(-c2cc(O)cc(F)c2)c2c(N)ncnc21 (single isomer, unassigned) [Example 121a, 4-(2-{1-[4-amino-3-(3-fluoro-5-hydroxyphenyl)-1H-pyrazolo[3,4-d]pyrimidin-1-yl]ethyl}indolizin-3-yl)-1-[2-(morpholin-4-yl)ethyl]-1,2-dihydropyridin-2-one]"
10 to 1000,10 to 1000,10 to 1000,< 10,"C[C@H](c1cc2ccccn2c1-c1ccn(CCN2CCOCC2)c(=O)c1)n1nc(-c2cc(O)cc(F)c2)c2c(N)ncnc21 (single isomer, unassigned) [Example 121b, 4-(2-{1-[4-amino-3-(3-fluoro-5-hydroxyphenyl)-1H-pyrazolo[3,4-d]pyrimidin-1-yl]ethyl}indolizin-3-yl)-1-[2-(morpholin-4-yl)ethyl]-1,2-dihydropyridin-2-one]"
